Like-named read-outs stand apart in the source and are kept apart here.
Assays:
HIV = conditions: for HIV p24 protein in culture supernatants: CEM cells
Procedure: This example describes one method of inactivation of the purified virus according to the invention by crosslinking of surface proteins. […] Titrations of the fixative were preformed above and below the concentration recommended by the CDC for inactivation of virus in biological fluids (May 8, 1992/41 (RR-8); 001 CDC Guidelines for the Performance of CD4+ T-Cell Determinations in Persons with Human Immunodeficiency Virus Infection). Initially, purified virus was slowly thawed at 2-8° C. for 6-8 hours to minimize lysis of the virus. Next, while on ice, virus was diluted with cold PBS to a final concentration of approximately 1×10^10 copies/mL (cp/mL). […] The reaction mixtures were then incubated at 2-8° C. for 60 minutes while gently rocking. […] After the addition of glycine the reactions were gently rocked for 2 hr. at 2-8° C. To remove glycine and any excess unquenched fixative each reaction mixture was then dialyzed (10-14K m.w. cutoff) against 1 L PBS (pH 7.4, 2-8° C.) for 4 changes. Dialyzed virus was then transferred into a 15 mL tube and centrifuged for 10 min. at 3,000×g to pellet any precipitated virus. A sample of each supernatant was then tested in cell culture for the presence of infectious virus.
The modified virus produced as described in Example 2 was tested to ensure the process inactivated the virus. As an illustration, the CEM cell line, obtained from the American Type Culture Collection was used as a host cell for viral infectivity studies. Advantages of using this line are that establishment of in vitro HIV infection requires relatively few virions and that the infection is chronic rather than lytic, facilitating analysis. For these studies, infection is detected and followed using the ZeptoMetrix HIV p24 Antigen EIA (ZeptoMetrix, Buffalo N.Y.).
CEM cells are cultured in RPMI-1640 containing 10% FBS in 24 well plates Cells are plated at 10^5 cells per well in a 1 ml volume and 100 ul of various dilutions of virus, either treated or untreated, are added to individual wells. Cultures are fed twice weekly by 50% media replacement and culture supernatants are assayed for HIV p24. All cultures initially contain HIV p24. However, in cultures where virus is noninfectious HIV p24 levels decrease over time eventually reaching background levels.
Different dilutions (1:8,000, 1:80,000, and 1:800,000) of treated virus were then placed into cultures of CEM cells and p24 assays were performed on culture supernatants on days 3, 7, 10, and 14 post-inoculation. Data are expressed as pg/ml of HIV p24 protein in the culture supernatants. The standard curve for the p24 assay is linear from 7.8 pg/ml to 125 pg/ml. HIV p24 concentrations below 7.8 pg/ml are expressed as “<7.8 pg/ml” to indicate sensitivity of the assay, and values above 125 pg/ml are expressed as “>125 pg/ml” since the assay is nonlinear above 125 pg/ml.

[1] = tested on: duck hepatitis B virus (DHBV); conditions: 60 minutes, 20° C., Reed and Muench
Procedure: This model uses primary duck hepatocytes (PDHs) as host (Pugh et al., 1999). We isolated and maintained PDHs from less than one week-old seronegative White Pekin ducklings (Anas dornesticus) with modifications from previous procedures (Berry and Friend, 1969, Seglen. 1976, Pugh and Summers, 1989, Pugh et al., 2000, Tuttleman et al., 1986). Briefly, ducks were euthanized by exposing them to C02 and livers were perfused twice via the atrium of the heart with approximately 200 mL each of two solutions. The first solution consisted of SWIM's S-77 medium (Sigma) supplemented with 0.5 mmol/L EGTA, 2 mmol/L Hepes (pH 7.45) and 50 ug/mL penicillin and streptomycin (Biofluids, Rockville, Md.). The second solution contained SWIM's S-77 medium supplemented with 2.5 mmol/L CaCl2, 0.5 mg of collagenase/mL (type I, Sigma, St. Louis) and 50 ug/mL penicillin and streptomycin. These perfusates were administered at approximately 15 mL/minute using a peristaltic pump and the temperature of the perftisate was adjusted to maintain the liver at 37° C. The liver was removed, minced with scissors and repeatedly mixed with a 25 mL pipette for hepatocyte dispersion into complete L-15 medium (Biofluids, Rockville, Md.) supplemented with 0.05-percent (w/v) sodium bicarbonate (Biofluids), 1 mmol/L glutamine (Biofluids), 20 mmol/L HEPES (Biofluids), 50 ug/mL penicillin and streptomycin (Biofluids), I (g/mL insulin (Sigma, St. Louis), and 10 (moi/L hydrocortisone-hemisuccinate (Sigma). Cells were filtered through sterile gauze, centrifuged at 50×g for 4 minutes, and the resulting cell pellet was washed three times with L-15 medium and resuspended in L-15 medium. 12-well plates were seeded with approximately two-mL of the cell suspension (ca. 10^5 cells). Media on the plated cells were aspirated every two days and replaced with fresh L-15 media.
Serum of four week-old congenitally infected duckling served as the source of virus used in these experiments. Treated and control DHBV spiked red cell samples were serially diluted 10-fold in L-15 medium and one-mL volumes were subsequently inoculated into PDH monolayers in quadruplicate. The infected cultures were incubated at 37° C.+20° C. with 5+1% C02 overnight for virus attachment and entry. The inoculum was then removed, cell monolayers washed once with complete L-15 medium to remove excess red blood cells, and then each well was overlaid with approximately 2-mL of fresh L-15 medium. Infected monolayers were incubated an additional 10-14 days at 37(+20° C. with 5+1% C02, with media changes every 2 days.
We detected the presence of DHB V-infected duck hepatocytes by an IFA. Briefly, the medium from the PDH monolayer was removed by aspiration, and the monolayers washed with agitation for 5-10 minutes with 1-2 mL of phosphate buffered saline (PBS). […]

Substance: paraformaldehyde
- HIV p24 protein in culture supernatants (HIV; exposure time 15 minutes, treated HIV diluted 1:8,000, 10 days post-inoculation): 43.9 pg/mL
- HIV p24 protein in culture supernatants (HIV; exposure time 15 minutes, treated HIV diluted 1:8,000, 14 days post-inoculation): <7.8 pg/mL
- HIV p24 protein in culture supernatants (HIV; exposure time 15 minutes, treated HIV diluted 1:80,000, 3 days post-inoculation): 27.9 pg/mL
- HIV p24 protein in culture supernatants (HIV; exposure time 15 minutes, treated HIV diluted 1:80,000, 7 days post-inoculation): 18.0 pg/mL
- HIV p24 protein in culture supernatants (HIV; exposure time 15 minutes, treated HIV diluted 1:80,000, 10 days post-inoculation): <7.8 pg/mL
- HIV p24 protein in culture supernatants (HIV; exposure time 15 minutes, treated HIV diluted 1:80,000, 14 days post-inoculation): <7.8 pg/mL
- HIV p24 protein in culture supernatants (HIV; exposure time 15 minutes, treated HIV diluted 1:800,000, 3 days post-inoculation): <7.8 pg/mL
- HIV p24 protein in culture supernatants (HIV; exposure time 15 minutes, treated HIV diluted 1:800,000, 7 days post-inoculation): <7.8 pg/mL
- HIV p24 protein in culture supernatants (HIV; exposure time 15 minutes, treated HIV diluted 1:800,000, 10 days post-inoculation): <7.8 pg/mL
- HIV p24 protein in culture supernatants (HIV; exposure time 15 minutes, treated HIV diluted 1:800,000, 14 days post-inoculation): <7.8 pg/mL
- HIV p24 protein in culture supernatants (HIV; exposure time 30 minutes, treated HIV diluted 1:8,000, 3 days post-inoculation): >125 pg/mL
- HIV p24 protein in culture supernatants (HIV; exposure time 30 minutes, treated HIV diluted 1:8,000, 7 days post-inoculation): >125 pg/mL
- HIV p24 protein in culture supernatants (HIV; exposure time 30 minutes, treated HIV diluted 1:8,000, 10 days post-inoculation): 46.2 pg/mL
- HIV p24 protein in culture supernatants (HIV; exposure time 30 minutes, treated HIV diluted 1:8,000, 14 days post-inoculation): <7.8 pg/mL
- HIV p24 protein in culture supernatants (HIV; exposure time 30 minutes, treated HIV diluted 1:80,000, 3 days post-inoculation): 22.6 pg/mL
- HIV p24 protein in culture supernatants (HIV; exposure time 30 minutes, treated HIV diluted 1:80,000, 7 days post-inoculation): 10.3 pg/mL
- HIV p24 protein in culture supernatants (HIV; exposure time 30 minutes, treated HIV diluted 1:80,000, 10 days post-inoculation): <7.8 pg/mL
- HIV p24 protein in culture supernatants (HIV; exposure time 30 minutes, treated HIV diluted 1:80,000, 14 days post-inoculation): <7.8 pg/mL
- HIV p24 protein in culture supernatants (HIV; exposure time 30 minutes, treated HIV diluted 1:800,000, 3 days post-inoculation): <7.8 pg/mL
- HIV p24 protein in culture supernatants (HIV; exposure time 30 minutes, treated HIV diluted 1:800,000, 7 days post-inoculation): <7.8 pg/mL
- HIV p24 protein in culture supernatants (HIV; exposure time 30 minutes, treated HIV diluted 1:800,000, 10 days post-inoculation): <7.8 pg/mL
- HIV p24 protein in culture supernatants (HIV; exposure time 30 minutes, treated HIV diluted 1:800,000, 14 days post-inoculation): <7.8 pg/mL
- HIV p24 protein in culture supernatants (HIV; exposure time 60 minutes, treated HIV diluted 1:8,000, 3 days post-inoculation): >125 pg/mL
- HIV p24 protein in culture supernatants (HIV; exposure time 60 minutes, treated HIV diluted 1:8,000, 7 days post-inoculation): >125 pg/mL
- HIV p24 protein in culture supernatants (HIV; exposure time 60 minutes, treated HIV diluted 1:8,000, 10 days post-inoculation): 87.4 pg/mL
- HIV p24 protein in culture supernatants (HIV; exposure time 60 minutes, treated HIV diluted 1:8,000, 14 days post-inoculation): <7.8 pg/mL
- HIV p24 protein in culture supernatants (HIV; exposure time 60 minutes, treated HIV diluted 1:80,000, 3 days post-inoculation): 59.8 pg/mL
- HIV p24 protein in culture supernatants (HIV; exposure time 60 minutes, treated HIV diluted 1:80,000, 7 days post-inoculation): 36.0 pg/mL
- HIV p24 protein in culture supernatants (HIV; exposure time 60 minutes, treated HIV diluted 1:80,000, 10 days post-inoculation): <7.8 pg/mL
- HIV p24 protein in culture supernatants (HIV; exposure time 60 minutes, treated HIV diluted 1:80,000, 14 days post-inoculation): <7.8 pg/mL
- HIV p24 protein in culture supernatants (HIV; exposure time 60 minutes, treated HIV diluted 1:800,000, 3 days post-inoculation): <7.8 pg/mL
- HIV p24 protein in culture supernatants (HIV; exposure time 60 minutes, treated HIV diluted 1:800,000, 7 days post-inoculation): <7.8 pg/mL
- HIV p24 protein in culture supernatants (HIV; exposure time 60 minutes, treated HIV diluted 1:800,000, 10 days post-inoculation): <7.8 pg/mL
- HIV p24 protein in culture supernatants (HIV; exposure time 60 minutes, treated HIV diluted 1:800,000, 14 days post-inoculation): <7.8 pg/mL
- HIV p24 protein in culture supernatants (HIV; exposure time Overnight, treated HIV diluted 1:8,000, 3 days post-inoculation): >125 pg/mL
- HIV p24 protein in culture supernatants (HIV; exposure time Overnight, treated HIV diluted 1:8,000, 7 days post-inoculation): >125 pg/mL
- HIV p24 protein in culture supernatants (HIV; exposure time Overnight, treated HIV diluted 1:8,000, 10 days post-inoculation): 27.6 pg/mL
- HIV p24 protein in culture supernatants (HIV; exposure time Overnight, treated HIV diluted 1:8,000, 14 days post-inoculation): <7.8 pg/mL
- HIV p24 protein in culture supernatants (HIV; exposure time Overnight, treated HIV diluted 1:80,000, 3 days post-inoculation): 16.3 pg/mL
- HIV p24 protein in culture supernatants (HIV; exposure time Overnight, treated HIV diluted 1:80,000, 7 days post-inoculation): 17.5 pg/mL
- HIV p24 protein in culture supernatants (HIV; exposure time Overnight, treated HIV diluted 1:80,000, 10 days post-inoculation): <7.8 pg/mL
- HIV p24 protein in culture supernatants (HIV; exposure time Overnight, treated HIV diluted 1:80,000, 14 days post-inoculation): <7.8 pg/mL
- HIV p24 protein in culture supernatants (HIV; exposure time Overnight, treated HIV diluted 1:800,000, 3 days post-inoculation): <7.8 pg/mL
- HIV p24 protein in culture supernatants (HIV; exposure time Overnight, treated HIV diluted 1:800,000, 7 days post-inoculation): <7.8 pg/mL
- HIV p24 protein in culture supernatants (HIV; exposure time Overnight, treated HIV diluted 1:800,000, 10 days post-inoculation): <7.8 pg/mL
- HIV p24 protein in culture supernatants (HIV; exposure time Overnight, treated HIV diluted 1:800,000, 14 days post-inoculation): <7.8 pg/mL
- amounts of p24 in the culture supernatants (HIV; treatment of virus with paraformaldehyde, by day 14): non-detectable
- FFFUD50/mL (log10) ([1]; paraformaldehyde column 1): 0 FFFUD50/mL (log10)
- FFFUD50/mL (log10) ([1]; paraformaldehyde column 2): 0 FFFUD50/mL (log10)
- FFFUD50/mL (log10) ([1]; paraformaldehyde column 3): 0 FFFUD50/mL (log10)
- FFFUD50/mL (log10) ([1]; paraformaldehyde column 4): 0 FFFUD50/mL (log10)

Reference: US9120849B2 (priority 2000, dated 2015)
